Test results taken from patent EP0463514B1, “3.3'-Dithiobis (propionic acids) and esters thereof” (priority 1990, dated 1992).
Marks after values point to notes of the source that are not given here.

Test system: delayed type hypersensitivity (DTH) reaction
Test: Delayed type hypersensitivity (DTH) reaction in the mouse, OXA sensitization and ear challenge, ear thickness
Assay type: in vivo, Balb/c mice
Conditions: oral feeding from sensitization to Day 6, 100 = doubled ear thickness; for % Increase, 48h: increase in ear thickness 48 hours after OXA challenge
From the text: The property of the compounds of the invention to stimulate immune responses are illustrated by their efficacy in a model in the mouse of the delayed type hypersensitivity (DTH) reaction.
Both male and female Balb/c mice obtained from Bomhotsgaard (Denmark) and Charlie Rivers (England), were used at the weight of 18-20 gram. 4-ethoxymethylene-2-phenyloxazolone (OXA) was purchased from BDH (England) and served as an antigen in this test.
The mice were sensitized, Day 0, by epicutaneous application of 150 ul absolute ethanol-acetone (3:1) solution containing 3% OXA on the shaved thorax and abdomen. Treatment with the compound under examination, DiNAC (as a positive control) or vehicle (phosphate buffer, pH 7.0) was initiated by oral feeding immediately after sensitization and contiuned once to Day 6. […] (Day 6) after the sensitization both ears of all mice were challenged on both sides by topical application of 20 ul 1% OXA dissolved in olive oil. Ear thickness was measured prior to and 24 or 48 hours after challenge using an Oditest spring calliper. Challenges and measurements were performed under light pentobarbital anaesthesia. The intensity of the DTH reactions was expressed according to the formula: Tt24/48-Tt0 um units, where t0 and t24/48 represent the ear thickness before and 24 or 48 hours after challenge, respectively, in individual test (T). The results were expressed as the mean+/-S.E.M. The level of significance between means of the groups was obtained by Student's two-tailed t-test. […] A figure of 100 thus indicates a doubled ear thickness.

| Structure (SMILES) | % Increase, 48h (0.03 »mol/kg) | % Increase, 48h | % Increase, 24h (increase in ear thickness 24 hours after OXA challenge, 0.03 »mol/kg) |
| --- | --- | --- | --- |
| COC(=O)[C@H](CSSC[C@H](NC(=O)C(C)C)C(=O)OC)NC(=O)C(C)C [Example 14, (R,R)-N,N'-di(2-methylpropionyl)-3,3'-dithiobis(2-aminopropionic acid)dimethylester] | 17* % | 27*** % |  |
| CC(=O)N[C@@H](CSSC[C@H](NC(=O)C(C)(C)C)C(=O)O)C(=O)O [Example 20, (R,R)-N-Acetyl-N'-(2,2-dimethylpropionyl)-3,3'-dithiobis(2-aminopropionic acid)] | 14% | 17* % |  |
| CC(C)C(=O)N[C@@H](CSSC[C@H](NC(=O)C(C)C)C(=O)O)C(=O)O [Example 16, (R,R)-N,N'-di(2-methylpropionyl)-3,3'-dithiobis(2-aminopropionic acid)] | 27** % | 62*** % |  |
| CCCCCCCC(=O)N[C@@H](CSSC[C@H](NC(=O)CCCCCCC)C(=O)OCC)C(=O)OCC [Example 11, (R,R)-N,N'-di(1-oxo-octyl)-3,3'-dithiobis(2-aminopropionic acid)diethylester] | 0% | 0% |  |
| CCCCCCCC(=O)N[C@@H](CSSC[C@H](NC(=O)CCCCCCC)C(=O)OC)C(=O)OC [Example 10, (R,R)-N,N'-di(1-oxo-octyl)-3,3'-dithiobis-(2-aminopropionic acid)dimethylester] | 28** % | 20* % |  |
| CCCCCC(=O)N[C@@H](CSSC[C@H](NC(=O)CCCCC)C(=O)OC)C(=O)OC [Example 9, (R,R)-N,N'-dihexanoyl-3,3'-dithiobis(2-aminopropionic acid)dimethylester] | 51*** % | 45*** % |  |
| CC(C)(C)C(=O)N[C@@H](CSSC[C@H](NC(=O)C(C)(C)C)C(=O)O)C(=O)O [Example 21, (R,R)-N,N'-di(2,2-dimethylpropionyl)-3,3'-dithiobis(2-aminopropionic acid)] | 26* % | 27* % | 14* % |
